Patent US7988956B2, “Hydrolytically degradable carbamate derivatives of poly(ethylene glycol)” (Nektar Therapeutics, priority 1999, dated 2011)

Experiments:
[1] = system: Micrococcus lysodeikticus; assay: Bioactivity measurement of reversible lysozyme conjugate (Sigma HEW lysozyme protocol, decrease in absorbance at 450 nm); assay type: biochemical; settings: 66 mM sodium phosphate buffer pH 6.24
Experimental: Bioactivity of free lysozyme, PEG conjugates of lysozyme and lysozyme recovered from hydrolysis of the conjugates were measured by an assay from the standard protocol of Sigma for hen's egg white (HEW) lysozyme EC.3.2.1.17. A solution containing the unmodified or PEG-modified lysozyme was diluted to 5.5 μg/ml in a 66 mM sodium phosphate buffer (pH 6.24). A suspension of 1.5 mg Micrococcus lysodeikticus in 10 ml of 66 mM phosphate buffer (pH 6.24) was allowed to equilibrate at room temperature until the absorbance at 450 nm was constant. Then 0.1 ml of a lysozyme solution was placed in a 1 cm light path quatz cuvette containing 2.5 ml of the substrate suspension. The decrease in the absorbance at 450 nm was recorded and the activity was determined from the maximum linear rate. Eighty-two percent of lysozyme bioactivity was recovered from the m-PEG-lysozyme conjugate, while the mPEG lysozyme had undetectable bioactivity prior to hydrolysis.

[2] = Hydrolysis of the PEG conjugate of lysozyme monitored by capillary electrophoresis; assay type: physicochemical; settings: after hydrolysis for 10 days at pH 7 and 37° C.; CE, FIG. 1 Curve B
Experimental: The conjugates prepared as described above were placed at 37° C. and at room temperature and hydrolysis was monitored by capillary electrophoresis (CE).
CE conditions: A solution of 25 mM phosphate buffer, containing 0.1 mg/ml PEO 600K, pH 2.7 was flushed through the capillary for approximately 15-20 min. A voltage of 15 kV was applied until a smooth baseline was obtained. The 25 mM phosphate buffer solution was again flushed through for approximately 5 min and the capillary was then ready for sample injection. The sample, which was adjusted to pH 2 by a phosphate buffer (0.1 M, pH 2), was injected hydrostatically for about […] at a height of approximately 6 inches. A voltage of 15 kV was applied throughout the run with a current between 24 and 30 μA. The protein and PEG-protein conjugate were detected by a UV monitor at 214 nm. The CE instrument consists of a high-voltage power supply (Spellman CZE1000R), a fused silica capillary (75 μm i.d., 360 μm o.d., Polymicro Technologies, Phoenix, Ariz.) and a linear 200 UV/VIS monitor supplied with a deuterium lamp and a capillary flow cell. The total length of the capillary was 64.5 cm, with a 1 cm optical window at 40 cm from the anode. UV data was retrieved and stored using LabVIEW version 4.0.1 software (National Instruments).

## mPEG-lysozyme conjugate: mPEG-lysozyme conjugate prepared with N-mPEG benzamide-m-succimidyl carbonate; mono, di and tri PEGylated lysozyme
[1]; PEG conjugate before hydrolysis
  bioactivity prior to hydrolysis: undetectable
[1]; lysozyme recovered from hydrolysis of the conjugate
  lysozyme bioactivity recovered from the conjugate: Eighty-two
[2]
  free lysozyme released: more than 85%
